# Results published in US20020198127A1, “Liquid cleaning compositions and their use” (Unilever Home & Personal Care USA, Division of Conopco, Inc., priority 2001, published 2002).
# System: protease enzyme
# Experiment: % residual activity (RA) of the protease enzyme in liquid detergent composition after storage at 37° C.
# Format: biochemical
# Conditions: for Avg. RA (%): 37° C.; for protease stability versus control, in words: Examples 1-3, storage at 37° C. up to 56 days
# Protocol: All catalysts dosed at 0.1% by weight on tope of the composition except complex G. This catalyst was dosed at 0.06 weight %.
# In all cases, the pH of the composition was 7.2.
# The % residual activity (RA) of the protease enzyme after storage at 37° C. was measured up to 56 days for the compositions of Examples 1-4 alone (controls), for the same compositions with 0.1% by weight of the complex B added and the same compositions with only the free ligand A added on top of the formulation (on a mole equivalent basis of the amount of the ligand in 0.1% by weight of complex B).
# In Examples 4-9, 11 and 12, the pH of the composition was 7.2.
# In Example 10, the pH of the composition was 8.0.
compound,measurement,setting,value
"F[P-](F)(F)(F)(F)F.F[P-](F)(F)(F)(F)F.[Fe+2].c1ccc(CN(CCN(Cc2ccccn2)Cc2ccccn2)Cc2ccccn2)nc1 [Complex G, [Fe(tpen)] (PF6)2]",Avg. RA (%),"Example 8 composition pH 7.2, +0.06% Complex G, day 0",100.0%
same,Avg. RA (%),"Example 8 composition pH 7.2, +0.06% Complex G, day 7",97%
same,Avg. RA (%),"Example 8 composition pH 7.2, +0.06% Complex G, day 14",89%
same,Avg. RA (%),"Example 8 composition pH 7.2, +0.06% Complex G, day 28",77%
"F[P-](F)(F)(F)(F)F.[Cl-].[Fe+2].c1ccc(CNCCN(Cc2ccccn2)Cc2ccccn2)nc1 [Complex D, [Fe(trispicenNH)Cl]PF6]",Avg. RA (%),"Example 6 composition pH 7.2, +0.1% Complex D, day 0",100.0%
same,Avg. RA (%),"Example 6 composition pH 7.2, +0.1% Complex D, day 7",100%
same,Avg. RA (%),"Example 6 composition pH 7.2, +0.1% Complex D, day 14",92%
same,Avg. RA (%),"Example 6 composition pH 7.2, +0.1% Complex D, day 28",74%
"CC(c1ccccn1)(c1ccccn1)N(Cc1ccccn1)Cc1ccccn1 [Ligand A, N,N-bis(pyridin-2-yl-methyl)-1,1-bis(pyridin-2-yl)-1-aminoethane]",Avg. RA (%),"Ex. 1 composition pH 7.2, +0.1% mole equiv. Ligand A, day 0",100.0%
same,Avg. RA (%),"Ex. 1 composition pH 7.2, +0.1% mole equiv. Ligand A, day 3",85.0%
same,Avg. RA (%),"Ex. 1 composition pH 7.2, +0.1% mole equiv. Ligand A, day 7",63.9%
same,Avg. RA (%),"Ex. 1 composition pH 7.2, +0.1% mole equiv. Ligand A, day 14",48.8%
same,Avg. RA (%),"Ex. 1 composition pH 7.2, +0.1% mole equiv. Ligand A, day 28",38.0%
same,Avg. RA (%),"Ex. 1 composition pH 7.2, +0.1% mole equiv. Ligand A, day 56",18.4%
same,Avg. RA (%),"Ex. 2 composition pH 7.2, +0.1% mole equiv. Ligand A, day 0",100.0%
same,Avg. RA (%),"Ex. 2 composition pH 7.2, +0.1% mole equiv. Ligand A, day 3",70.7%
same,Avg. RA (%),"Ex. 2 composition pH 7.2, +0.1% mole equiv. Ligand A, day 7",63.1%
same,Avg. RA (%),"Ex. 2 composition pH 7.2, +0.1% mole equiv. Ligand A, day 14",46.9%
same,Avg. RA (%),"Ex. 2 composition pH 7.2, +0.1% mole equiv. Ligand A, day 28",29.3%
same,Avg. RA (%),"Ex. 2 composition pH 7.2, +0.1% mole equiv. Ligand A, day 56",13.0%
same,Avg. RA (%),"Ex. 3 composition pH 7.2, +0.1% mole equiv. Ligand A, day 0",100.0%
same,Avg. RA (%),"Ex. 3 composition pH 7.2, +0.1% mole equiv. Ligand A, day 3",72.0%
same,Avg. RA (%),"Ex. 3 composition pH 7.2, +0.1% mole equiv. Ligand A, day 7",53.0%
same,Avg. RA (%),"Ex. 3 composition pH 7.2, +0.1% mole equiv. Ligand A, day 14",32.3%
same,Avg. RA (%),"Ex. 3 composition pH 7.2, +0.1% mole equiv. Ligand A, day 28",18.6%
same,Avg. RA (%),"Ex. 3 composition pH 7.2, +0.1% mole equiv. Ligand A, day 56",5.2%
same,"protease stability versus control, in words",,improvement in stability
"c1ccc(CN(CCN(Cc2ccccn2)Cc2ccccn2)Cc2ccccn2)nc1 [Ligand F, N,N,N′,N′-tetrakis(pyridin-2ylmethyl)ethylenediamine]",Avg. RA (%),"Example 11 composition pH 7.2, +0.1% Ligand F, day 0",100.0%
same,Avg. RA (%),"Example 11 composition pH 7.2, +0.1% Ligand F, day 7",85%
same,Avg. RA (%),"Example 11 composition pH 7.2, +0.1% Ligand F, day 14",76%
same,Avg. RA (%),"Example 11 composition pH 7.2, +0.1% Ligand F, day 28",63%
"COC(=O)C12CN(Cc3ccccn3)CC(C(=O)OC)(C1=O)C(c1ccccn1)N(C)C2c1ccccn1.O.[Cl][Fe][Cl] (stereo not drawn) [Complex H, Chloro(dimethyl 2,4-di-(2-pyridyl)-3-methyl-7-(pyridin-2-ylmethyl)-3,7-diaza-bicyclo[3.3.1]nonan-9-one-1,5-dicarboxylate)iron(II)-chloride hydrate]",Avg. RA (%),"Example 9 composition pH 7.2, +0.1% Complex H, day 0",100.0%
same,Avg. RA (%),"Example 9 composition pH 7.2, +0.1% Complex H, day 7",93%
same,Avg. RA (%),"Example 9 composition pH 7.2, +0.1% Complex H, day 14",91%
same,Avg. RA (%),"Example 9 composition pH 7.2, +0.1% Complex H, day 28",88%
"CN1CCN(C)CCN(C)CC1.CN1CCN(C)CCN(C)CC1.F[P-](F)(F)(F)(F)F.F[P-](F)(F)(F)(F)F.[Mn+4].[Mn+4].[O-2].[O-2].[O-2] [Complex E, [Mn2(1,4,7-trimethyl-1,4,7-triazacyclononane)2(μ-O)3] (PF6)2]",Avg. RA (%),"Example 7 composition pH 7.2, +0.1% Complex E, day 0",100.0%
same,Avg. RA (%),"Example 7 composition pH 7.2, +0.1% Complex E, day 7",93%
same,Avg. RA (%),"Example 7 composition pH 7.2, +0.1% Complex E, day 14",87%
same,Avg. RA (%),"Example 7 composition pH 7.2, +0.1% Complex E, day 28",80%
[Cl-].[Cl-].[Fe+2].c1ccc(CN(Cc2ccccn2)C(c2ccccn2)c2ccccn2)nc1 [Complex C],Avg. RA (%),"Example 5 composition pH 7.2, +0.1% Complex C, day 0",100.0%
same,Avg. RA (%),"Example 5 composition pH 7.2, +0.1% Complex C, day 7",98%
same,Avg. RA (%),"Example 5 composition pH 7.2, +0.1% Complex C, day 14",91%
same,Avg. RA (%),"Example 5 composition pH 7.2, +0.1% Complex C, day 28",78%
"CN1CCCN2CCN(C)CCCN(CC1)CC2 [Complex I, 5,12-dimethyl-1,5,8,12-tetraazabicyclo[6.6.2] hexadecane]",Avg. RA (%),"Example 12 composition pH 7.2, +0.1% Complex I, day 0",100.0%
same,Avg. RA (%),"Example 12 composition pH 7.2, +0.1% Complex I, day 7",84%
same,Avg. RA (%),"Example 12 composition pH 7.2, +0.1% Complex I, day 14",78%
same,Avg. RA (%),"Example 12 composition pH 7.2, +0.1% Complex I, day 28",67%
"CC(c1ccccn1)(c1ccccn1)N(Cc1ccccn1)Cc1ccccn1.O.O.[Cl-].[Cl-].[Fe+2] [Complex B, [Fe(MeN4py)Cl]Cl.2H20]",Avg. RA (%),"Ex. 1 composition pH 7.2, +0.1% Complex B, day 0",100.0%
same,Avg. RA (%),"Ex. 1 composition pH 7.2, +0.1% Complex B, day 3",93.7%
same,Avg. RA (%),"Ex. 1 composition pH 7.2, +0.1% Complex B, day 7",84.1%
same,Avg. RA (%),"Ex. 1 composition pH 7.2, +0.1% Complex B, day 14",93.9%
same,Avg. RA (%),"Ex. 1 composition pH 7.2, +0.1% Complex B, day 28",79.0%
same,Avg. RA (%),"Ex. 1 composition pH 7.2, +0.1% Complex B, day 56",71.3%
same,Avg. RA (%),"Ex. 2 composition pH 7.2, +0.1% Complex B, day 0",100.0%
same,Avg. RA (%),"Ex. 2 composition pH 7.2, +0.1% Complex B, day 3",92.2%
same,Avg. RA (%),"Ex. 2 composition pH 7.2, +0.1% Complex B, day 7",87.1%
same,Avg. RA (%),"Ex. 2 composition pH 7.2, +0.1% Complex B, day 14",80.4%
same,Avg. RA (%),"Ex. 2 composition pH 7.2, +0.1% Complex B, day 28",89.7%
same,Avg. RA (%),"Ex. 2 composition pH 7.2, +0.1% Complex B, day 56",75.4%
same,Avg. RA (%),"Ex. 3 composition pH 7.2, +0.1% Complex B, day 0",100.0%
same,Avg. RA (%),"Ex. 3 composition pH 7.2, +0.1% Complex B, day 3",79.0%
same,Avg. RA (%),"Ex. 3 composition pH 7.2, +0.1% Complex B, day 7",74.0%
same,Avg. RA (%),"Ex. 3 composition pH 7.2, +0.1% Complex B, day 14",64.9%
same,Avg. RA (%),"Ex. 3 composition pH 7.2, +0.1% Complex B, day 28",59.8%
same,Avg. RA (%),"Ex. 3 composition pH 7.2, +0.1% Complex B, day 56",48.7%
same,Avg. RA (%),"Example 4 composition (with sorbitol) pH 7.2, +0.1% Complex B, day 0",100.0%
same,Avg. RA (%),"Example 4 composition (with sorbitol) pH 7.2, +0.1% Complex B, day 7",98%
same,Avg. RA (%),"Example 4 composition (with sorbitol) pH 7.2, +0.1% Complex B, day 14",97%
same,Avg. RA (%),"Example 4 composition (with sorbitol) pH 7.2, +0.1% Complex B, day 28",92%
same,Avg. RA (%),"Example 10 composition pH 8.0, +0.1% Complex B, day 0",100.0%
same,Avg. RA (%),"Example 10 composition pH 8.0, +0.1% Complex B, day 3",92%
same,Avg. RA (%),"Example 10 composition pH 8.0, +0.1% Complex B, day 7",91%
same,Avg. RA (%),"Example 10 composition pH 8.0, +0.1% Complex B, day 14",86%
same,Avg. RA (%),"Example 10 composition pH 8.0, +0.1% Complex B, day 28",83%
same,"protease stability versus control, in words",,improvement in stability
